Measured values published in patent US20230310540A1, “PEPTIDE COMPOSITIONS AND METHODS OF USE THEREOF” (priority 2020, published 2023).
Converted amounts (≈) assume the structure as drawn. Like-named read-outs stand apart in the source and are kept apart here. Bridge positions count the residues as written; N and C are the ends. Peptide text beside a SMILES is read from it.

Legend:
Type in all cases: cell-based
S. aureus = conditions: for MIC in Broth Dilution, S. Aureus, RBC −: absence of RBC
Experimental: (§1) Peptide variants of D-CONGA (SEQ ID NO: 1) were tested for activity against E. coli, K. pneumoniae, and S. aureus. Minimum Inhibitory Concentrations (MIC) were measured in 96-well plates by broth dilution. Peptides were serially diluted in buffer or in buffer containing 1×10^9 human RBC/ml. Following 1 hr. incubation, bacteria in growth media were added and the plates were incubated overnight at 37° C. Sterilized, wells were identified to determine MIC. Hemolysis was measured by incubating 1×10^8 human RBCs with serially diluted peptide for 30 minutes followed by centrifugation of the cells and measurements of the released hemoglobin in the supernatant by absorbance at 410 nm. The value for 100% hemolysis was established by treatment with the detergent Triton-X100. Toxicity was measured by incubating serially diluted peptide with WI38 human fibroblast cells in the presence of SYTOX Green, a DNA binding dye that reports on cell death by membrane permeabilization. The peptide concentration that gives 50% cytotoxicity by relative SYTOX Green fluorescence, is denoted EC50.
(§2) Antimicrobial peptides and conventional antibiotics were prepared at 5-times the final concentration needed in 0.025% acetic acid. The antibiotics were serially diluted by a factor of 2:3 horizontally across 96-well plates from Corning, 25 μL per well. One column was reserved for controls. For the assays performed in the presence of RBC, type O+ human RBCs at 0 or 2.5×10^9 cells/mL were added in 50 μL aliquots to all wells. Following a 30-minute incubation, 50 μL of TSB, inoculated with 5×10^5 CFU/mL, was added to all wells, and plates were incubated overnight at 37° C. Following overnight incubation at 37° C., the OD600 was measured (values of less than 0.1 were considered sterilized). To assess bacterial growth in the assays with RBC, the OD600 was measured after a second day inoculation with 10 μL of solution from the original plate added to 100 μL of sterile TSB followed by overnight incubation.
(§3) MIC values were reported in μM peptide against gram-negative E. coli (EC), P. aeruginosa (PA), and gram-positive S. aureus (SA). The two columns under each organism are for assays performed in the absence (−) and presence (+) of 1×10^9 human RBC/ml. “>30” means that sterilization was not observed at 30 μM, the highest concentration tested. The column marked “hemolysis” is the fractional hemolysis of 1×10^8 human RBC/ml at 100 μM peptide determined from measurements of serially diluted peptide, starting from 100 μM. The column marked “EC 50” contains the concentration of peptide that kills 50% of WI-38 human fibroblast cells assayed by entry of SYTOX™ Green DNA binding dye.

E. coli = conditions: for MIC in Broth Dilution, E. coli, RBC −: absence of RBC; for MIC in Broth Dilution, E. coli, RBC − / MIC in Broth Dilution, E. coli, RBC +: Table 3; for MIC, E. coli, No RBC / MIC, E. coli, 10^9 cells/ml RBC: Table 2; for MIC in Broth Dilution, E. coli, RBC +: presence of 1×10^9 human RBC/ml; for MIC, E. coli, 10^9 cells/ml RBC: with 10^9 human RBC/ml
Experimental: as §1, §2, §3

K. pneumoniae = conditions: for MIC in Broth Dilution, K. Pneumoniae, RBC +: presence of 1×10^9 human RBC/ml
Experimental: as §1, §2, §3

human RBCs = experiment: Hemolysis of human RBCs
Experimental: as §1
Peptide was serially diluted in PBS starting at a concentration of 100 μM. The final volume of peptide in each well was 50 μL. To each well, 50 μL of RBCs in PBS at 2×10^8 cells/mL was added. As a positive lysis control, 1% triton was used. The mixtures were incubated at 37° C. for 1 hour, after which they were centrifuged at 1000 g for 5 minutes. After centrifugation, 10 μL of supernatant was transferred to 90 μL of DI H2O in a fresh 96-well plate. The absorbance of released hemoglobin at 410 nm was recorded and the fractional hemolysis was calculated based on the 100% and 0% lysis controls.
as §3

[1] = test system: Pseudomonas aeruginosa (CF mucoid and non-mucoid); experiment: Broth dilution MIC against P. aeruginosa isolates from cystic fibrosis patients
[2] = test system: Acinetobacter baumannii (PDR); experiment: Broth dilution MIC against pan drug-resistant A. baumannii isolate; conditions: isolate AB (PDR)
[3] = test system: Methicillin-resistant Staphylococcus aureus (SAP400); experiment: Broth dilution MIC against MRSA isolate
[4] = test system: WI-38 human fibroblast cells; experiment: SYTOX Green cytotoxicity assay
Experimental: Peptide variants of D-CONGA (SEQ ID NO: 1) were tested for activity against E. coli, K. pneumoniae, and S. aureus. Minimum Inhibitory Concentrations (MIC) were measured in 96-well plates by broth dilution. […] Following 1 hr. incubation, bacteria in growth media were added and the plates were incubated overnight at 37° C. Sterilized, wells were identified to determine MIC. […] The value for 100% hemolysis was established by treatment with the detergent Triton-X100. Toxicity was measured by incubating serially diluted peptide with WI38 human fibroblast cells in the presence of SYTOX Green, a DNA binding dye that reports on cell death by membrane permeabilization. The peptide concentration that gives 50% cytotoxicity by relative SYTOX Green fluorescence, is denoted EC50. WI-38 cells were grown to confluency in T-75 flasks in complete DMEM (with 15% FBS, plus antibiotics and non-essential amino acids). The day prior to cytotoxicity experiments, cells were trypsinized, removed from the flask, and pelleted. Cells were resuspended in complete DMEM and the cell count was obtained using a cell counter. The cells were then seeded at a density of 10,000 cells/well in a 96-well tissue-culture plate. […] To perform the cytotoxicity assay, media from wells of overnight cell culture plate was removed, washed once with PBS and treated with 50 μl of the peptide and SYTOX™ Green mixture. The plate was read for fluorescence, every 5 minutes, for an hour at the excitation wavelength of 385 nm and emission wavelength of 530 nm. MelP5, a potent MPP, that causes 100% SYTOX™ Green entry into the cells was used as a positive control to normalize the cytotoxicity of peptides tested. MIC values were reported in μM peptide against gram-negative E. coli (EC), P. aeruginosa (PA), and gram-positive S. aureus (SA). […] The column marked “EC 50” contains the concentration of peptide that kills 50% of WI-38 human fibroblast cells assayed by entry of SYTOX™ Green DNA binding dye.

[5] = fractional hemolysis of 1×10^8 human RBC/ml at 100 μM peptide, Table 3
[6] = fractional hemolysis of human RBCs at 100 μM peptide, Table 2
[7] = with 10^9 human RBC/ml, Table 2

`CC(C)C[C@@H]1NC(=O)[C@H](CCCNC(=N)N)NC(=O)[C@H](CCCNC(=N)N)NC(=O)[C@H](C)NC(=O)[C@H](Cc2c[nH]c3ccccc23)NC(=O)[C@H](CCCNC(=N)N)NC(=O)[C@H](CCCNC(=N)N)NC(=O)[C@H](CCCNC(=N)N)NC(=O)[C@H](CCCNC(=N)N)NC(=O)[C@H](Cc2ccccc2)NC(=O)[C@H](C)NC(=O)[C@H](Cc2ccccc2)NC(=O)[C@H](C)NC1=O` [CYCLIZED-L-CONGA-OH] (cyclo(RRWARRLAFAFRR)) was tested, and the “MIC in Broth Dilution, S. Aureus, RBC −” value (S. aureus; Table 3) was 20 µM (≈ 34.9 µg/mL), the “MIC, S. aureus, No RBC” value (S. aureus; Table 2) was 20 µM (≈ 34.9 µg/mL) and the “MIC in Broth Dilution, E. coli, RBC −” value (E. coli) was 5.9 µM (≈ 10.3 µg/mL). For the same compound, the “MIC, E. coli, No RBC” value (E. coli) was 5.9 µM (≈ 10.3 µg/mL), the “MIC in Broth Dilution, E. coli, RBC +” value (E. coli) was 13.3 µM and the “MIC, E. coli, 10^9 cells/ml RBC” value (E. coli) was 13.3 μM. The “MIC in Broth Dilution, K. Pneumoniae, RBC +” value (shortened to “MIC … K. Pneumoniae, RBC +”) (K. pneumoniae; Table 3) was 6 µM, the “Hemolysis at 100 μM” value (human RBCs; [5]) was 0.7 and the “Hemolysis at 100 μM” value (human RBCs; [6]) was 0.7.

Work on `CC1(C)S[C@@H]2[C@H](NC(=O)[C@H](N)c3ccccc3)C(=O)N2[C@H]1C(=O)O` [AMP, Ampicillin] yielded an MIC ([1]; isolate PA (mucoid)) of over 150 µM, an MIC ([1]; isolate PA (non-mucoid)) of over 150 µM and an MIC [2] of over 150 µM. The MIC [3] was over 150 µM.

“rrwa (nor r, nor r)lafafrr [D-CONGA-NorR]” was tested, and the “MIC in Broth Dilution, S. Aureus, RBC −” value (S. aureus; Table 3) was 7.6 µM, the “MIC, S. aureus, No RBC” value (S. aureus; Table 2) was 7.6 µM and the “MIC in Broth Dilution, S. Aureus, RBC +” value (S. aureus; presence of 1×10^9 human RBC/ml, Table 3) was 17.2 µM. The “MIC, S. aureus, 10^9 cells/ml RBC” value (S. aureus; [7]) was 17.2 μM, the “MIC in Broth Dilution, E. coli, RBC −” value (E. coli) was 1.9 µM and the “MIC, E. coli, No RBC” value (E. coli) was 1.9 µM. For the same compound, the “MIC in Broth Dilution, E. coli, RBC +” value (E. coli) was 2.4 µM, the “MIC, E. coli, 10^9 cells/ml RBC” value (E. coli) was 2.4 μM and the “MIC in Broth Dilution, K. Pneumoniae, RBC −” value (K. pneumoniae; absence of RBC, Table 3) was 13.3 µM. For the same compound, the “MIC, K. pneumoniae, No RBC” value (K. pneumoniae; no RBC, Table 2) was 13 µM, the “MIC … K. Pneumoniae, RBC +” value (K. pneumoniae; Table 3) was 11.8 µM and the “MIC, K. pneumoniae, 10^9 cells/ml RBC” value (K. pneumoniae; [7]) was 12 μM. The EC50 ([4]; 50% cytotoxicity by SYTOX Green, Table 2, read-out: EC50, μM (WI-38 Cells)) was 66 µM and the EC50 ([4]; kills 50% of WI-38 cells, SYTOX Green entry, Table 3, read-out: EC50, μM (WI-38)) was 66 µM.

`CC(C)C[C@@H]1NC(=O)[C@H](CCCNC(=N)N)NC(=O)[C@H](CCCNC(=N)N)NC(=O)[C@H](C)NC(=O)[C@H](Cc2c[nH]c3ccccc23)NC(=O)[C@H](CCCNC(=N)N)NC(=O)[C@H](CCCNC(=N)N)NC(=O)CC[C@@H](C(N)=O)NC(=O)[C@H](CCCNC(=N)N)NC(=O)[C@H](CCCNC(=N)N)NC(=O)[C@H](Cc2ccccc2)NC(=O)[C@H](C)NC(=O)[C@H](Cc2ccccc2)NC(=O)[C@H](C)NC1=O` [CYCLIZED-L-CONGA-E] (RRWARRLAFAFRRE-NH2; lactam N-14) was tested, and the “MIC in Broth Dilution, S. Aureus, RBC −” value (S. aureus; Table 3) was over 30 µM, the “MIC, S. aureus, No RBC” value (S. aureus; Table 2) was 30 µM (≈ 56.2 µg/mL) and the “MIC in Broth Dilution, E. coli, RBC −” value (E. coli) was 22.9 µM (≈ 42.9 µg/mL). The “MIC, E. coli, No RBC” value (E. coli) was 24 µM (≈ 44.9 µg/mL), the “MIC in Broth Dilution, E. coli, RBC +” value (E. coli) was over 30 µM and the “MIC, E. coli, 10^9 cells/ml RBC” value (E. coli) was 30 μM. For the same compound, the “MIC … K. Pneumoniae, RBC +” value (K. pneumoniae; Table 3) was over 30 µM, the “Hemolysis at 100 μM” value (human RBCs; [5]) was 0.03 and the “Hemolysis at 100 μM” value (human RBCs; [6]) was 0.03.
